Assay results reported in patent US12630544B2, “Compound, α-synuclein aggregate binder, and use thereof” (NATIONAL INSTITUTES FOR QUANTUM SCIENCE AND TECHNOLOGY, priority 2020, dated 2026).

Assays:
[1] = target: T1, phosphorylated α-synuclein (Mus musculus, UniProt O55042); assay: In vitro fluorescence microscope measurement, brain sections of α-synuclein fibril-inoculated mouse; conditions: 30 μM compound, 20% ethanol, 30 minutes; mouse brain section
T1 construct: from tissue; host or cells: brain of C57/BL/6 mouse inoculated in the striatum with recombinant (E. coli) mouse α-synuclein fibrils; sections or living animal
Procedure: First, mouse α-synuclein was expressed in and extracted from E. coli as a recombinant protein, and then incubated in vitro to form insoluble α-synuclein aggregates. The α-synuclein aggregates were then inoculated into the striatum of a mouse. […] Note that the inoculation of the α-synuclein aggregates into the striatum of the mouse was carried out in the following manner. First, hair on the head of a 9-week-old C57/BL/6 male mouse which had been anesthetized with 1.5% (v/v) isoflurane was removed, and the scalp was disinfected with isodine, followed by application of xylocaine and incision in the scalp to expose the skull. […]
The brain of this α-synuclein fibril-inoculated mouse was extracted, and then sections were prepared. The sections were analyzed by fluorescent staining. […] After the section was mounted in a mounting medium (VECTASHIELD H-1000), an image of an α-synuclein aggregate-enriched area on the section was obtained with use of a fluorescence microscope (DM4000 (excitation wavelength: 391 nm to 437 nm)). […] After the section was subjected to immunohistochemical staining with use of an anti-phosphorylated α-synuclein monoclonal antibody (pS129, abcam, ab59264) (1:1000) and then mounted in a mounting medium (VECTASHIELD H-1000), an image of the same area as above was obtained with use of a fluorescence microscope (DM4000 (excitation wavelength: 460 nm to 500 nm)). […]

[2] = target: T2, α-synuclein lesions (Homo sapiens, UniProt P37840); assay: In vitro fluorescence microscope measurement of the sections subjected to autoradiography (DLB, MSA); conditions: 30 μM, 50% ethanol, 30 minutes
T2 construct: α-synuclein aggregates formed in the brain of the DLB patient; from tissue; host or cells: post-mortem human brain: amygdala of DLB patient (sections or homogenate); cerebellum of MSA patient
Procedure: The section that had been subjected to the autoradiography was analyzed by fluorescent staining. Specifically, the section and 30 μM SPAL-T-06 were incubated in a 50% ethanol solution at room temperature for 30 minutes. Thereafter, the section was washed with a 50% ethanol solution for 5 minutes and with ultrapure water for 3 minutes. This washing was carried out twice. After the section was mounted in a mounting medium (VECTASHIELD H-1000), an image of an α-synuclein aggregate-enriched area on the section was obtained with use of a fluorescence microscope (DM4000 (excitation wavelength: 391 nm to 437 nm)). An adjacent brain section was also washed with a phosphate buffer solution, and then treated in an autoclave for antigen retrieval. After the section was subjected to immunohistochemical staining with an anti-phosphorylated α-synuclein monoclonal antibody (pS129, abcam, ab59264) (1:1000) and then mounted in a mounting medium (VECTASHIELD H-1000), images were obtained with use of fluorescence microscopes (BZ-X710, KEYENCE (excitation wavelength: 450 nm to 490 nm) and DM4000 (excitation wavelength: 460 nm to 500 nm)).

[3] = target: T3, α-synuclein aggregates (Mus musculus, UniProt O55042); assay: In vivo PET imaging of mouse brain (α-synuclein fibril-inoculated mouse vs physiological saline-injected mouse); conditions: intravenous injection of 18F-labeled compound, 90 minutes scan
T3 construct: from tissue; host or cells: brain of C57/BL/6 mouse inoculated in the striatum with recombinant (E. coli) mouse α-synuclein fibrils; sections or living animal
Procedure: First, mouse α-synuclein was expressed in and extracted from E. coli as a recombinant protein, and then incubated in vitro to form insoluble α-synuclein aggregates. The α-synuclein aggregates were then inoculated into the striatum of a mouse. […] Note that the inoculation of the α-synuclein aggregates into the striatum of the mouse was carried out in the following manner. First, hair on the head of a 9-week-old C57/BL/6 male mouse which had been anesthetized with 1.5% (v/v) isoflurane was removed, and the scalp was disinfected with isodine, followed by application of xylocaine and incision in the scalp to expose the skull. Then, a hole was drilled in the skull at a position of 0.05 mm posterior to the bregma and 2 mm lateral to the midline, and 3 μl of an α-synuclein fibril solution (mouse α-synuclein fibril (4 mg/ml) in saline) was injected into a position […] ventral to the brain surface with use of a glass pipette. The scalp was then returned and sutured.
PET scanning was carried out with use of a micro PET Focus 220 animal scanner (Siemens Medical Solutions), which provided 95 slices each having a thickness of 0.851 mm (center thickness), a […]. Before the scanning, an α-synuclein fibril-inoculated mouse and a physiological saline-injected mouse (control) were each anesthetized with 1.5% (v/v) isoflurane. […]

binding to α-synuclein lesions in DLB and MSA brain sections (fluorescent staining) [2]: bound to α-synuclein lesions
SMILES: CNc1cnc(C#C/C=C/c2nc3ccc(OCC(O)CF)cc3s2)cn1 (stereo not drawn) [SPAL-T-06, (E)-1-fluoro-3-((2-(4-(5-(methylamino)pyrazin-2-yl)but-1-en-3-yn-1-yl)benzo[d]thiazol-6-yl)oxy)propan-2-ol]
binding to lesion caused by phosphorylated α-synuclein (fluorescent staining, co-stained with pS129 antibody) [1]: bound to a lesion caused by phosphorylated α-synuclein | brain-entering property / clearance rate from the brain (PET) [3]: adequate brain-entering property or an adequate clearance rate from the brains
